Measured values taken from patent US12643884B2, “1-(2-(4-cyclopropyl-1H-1,2,3-triazol-1-yl)acetyl)-4-hydroxypyrrolidine-2-carboxa|mide derivatives as VHL inhibitors for the treatment of anemia” (Genentech, Inc., priority 2020, dated 2026).

What was measured:
VHL = molecular target: T1, VHL (Homo sapiens, UniProt P40337); assay: VHL nanoBRET (+Digitonin); format: cell-based
T1 construct: expressed in transfected cells

VHL Elongin B/C complex = molecular target: T2, VHL Elongin B/C complex (Homo sapiens, UniProt P40337); assay: Fluorescence Polarization (FP) VHL Binding Assay; conditions: fluorescence polarization tracer competition; geometric mean where more than one measurement
T2 construct: amino acids E55-D213 of human VHL; His6 (N); TEV-protease cleavage site (N); made in house; host or cells: E. coli
T2 sequence (P40337 55-213): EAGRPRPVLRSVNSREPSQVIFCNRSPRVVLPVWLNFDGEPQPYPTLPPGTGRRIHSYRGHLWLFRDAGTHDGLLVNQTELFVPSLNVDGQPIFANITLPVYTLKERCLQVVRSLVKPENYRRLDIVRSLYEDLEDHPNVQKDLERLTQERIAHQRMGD
T2 sequence (Q15370 whole entry partner, the tested form may be a part): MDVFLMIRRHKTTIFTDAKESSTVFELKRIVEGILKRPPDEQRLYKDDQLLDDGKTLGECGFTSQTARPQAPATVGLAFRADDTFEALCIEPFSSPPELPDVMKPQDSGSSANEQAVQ
T2 sequence (Q15369 17-112 partner limits assumed): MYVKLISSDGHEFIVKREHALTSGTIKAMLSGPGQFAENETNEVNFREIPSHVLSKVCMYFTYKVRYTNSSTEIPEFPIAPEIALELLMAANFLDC
Experimental: The binding of test compounds to the VHL Elongin B/C complex is measured using a fluorescence polarization tracer competition assay. The VHL/Elongin B/C protein complex used in the assay is generated as follows. The coding region for amino acids E55-D213 of human VHL with N-terminal His6 tag with a TEV-protease cleavage site is co-expressed with Elongin B (residues M1-Q118) and Elongin C (Residues M17-C112) in E. coli. The VHL/Elongin B/C complex is purified using an affinity nickel column, anion exchange HiTrap QP HP column chromatography, and gel filtration using a Superdex 75 26/60 column. […] A VHL fluorescence polarization probe consists of a VHL ligand coupled to carboxytetramethylrhodamine (TAMRA); (2S,4R)—N-(2-(2-(3′,6′-bis(dimethylamino)-3-oxo-3H-spiro[isobenzofuran-1,9′-xanthene]-5-carboxamido)ethoxy)-4-(4-methylthiazol-5-yl)benzyl)-4-hydroxy-1-((R)-3-methyl-2-(3-methylisoxazol-5-yl)butanoyl)pyrrolidine-2-carboxamide. […] A “pre-assay” fluorescence measurement is made using an Infinite® M1000 (Tecan) plate reader (Excitation 530 nm, Emission 574 nm, Bandwidth 10 nm). […] “Post-assay” fluorescence polarization measurements are made as described for the “pre-assay” fluorescence measurement. […] The data are analyzed using Genedata Screener software and normalized to the “no VHL control” and “VHL control” (without compound). […]

[1] = molecular target: T3, NanoLuc VHL fusion protein stably expressed in HEK 293 cells (Homo sapiens, UniProt P40337); assay: VHL HEK-293 BRET Assay (VHL NanoBRET Target Engagement Assay); format: cell-based; conditions: for IC50: HEK293 cells, nanoBRET, geometric mean where more than one measurement, read-out: VHL binding in cells (HEK293 nanoBRET); for Ratio cell permeability shift: ratio of nanoBRET in cells to nanoBRET +Digitonin
T3 construct: expressed in transfected cells
T3 sequence (P40337 whole entry, the tested form may be a part): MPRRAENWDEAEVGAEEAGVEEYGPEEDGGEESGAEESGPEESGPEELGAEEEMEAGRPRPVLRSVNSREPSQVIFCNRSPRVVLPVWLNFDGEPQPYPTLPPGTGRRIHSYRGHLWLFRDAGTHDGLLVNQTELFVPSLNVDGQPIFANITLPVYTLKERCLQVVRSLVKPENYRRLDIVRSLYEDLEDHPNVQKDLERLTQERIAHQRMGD
T3 sequence (Q15370 whole entry partner, the tested form may be a part): as the sequence (Q15370 whole entry partner, the tested form may be a part) above
T3 sequence (Q15369 whole entry partner, the tested form may be a part): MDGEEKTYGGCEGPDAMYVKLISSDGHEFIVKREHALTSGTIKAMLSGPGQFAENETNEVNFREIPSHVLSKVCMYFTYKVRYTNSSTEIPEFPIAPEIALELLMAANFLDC
Experimental: The VHL NanoBRET™ Target Engagement Assay analyzes the apparent affinity of test compounds for VHL in cells by competitive displacement of a VHL NanoBRET™ tracer reversibly bound to a NanoLuc® VHL fusion protein stably expressed in the cells.
Test compounds were transferred to the assay plate (384 Well White Non-Binding Corning Assay Plates (Corning-3574)) using an Echo 555 Liquid Handler (Labcyte) in 2.5 nL increments and, as appropriate, intermediate stock concentrations of compounds, in order to prepare a titration series. 50 nL of control compound (10 mM; parental unlabeled VHL antagonist; see structure below) and 50 nL of DMSO (negative control) were dispensed into the appropriate control wells. DMSO was backfilled to a final volume of 50 nL as required. 50 nl per well of 1 mM VHL NanoBRET™ Tracer in DMSO (NanoBRET™ Tracer-PEG2-590 (see structure below)) was transferred into each well using an Echo 555 (ultimately yielding a final concentration of 1 uM). HEK 293 RT VHL-NanoLuc® stable cells were cultured in DMEM High Glucose with Pyruvate, 10% fetal bovine serum, 2 mg/mL of Geneticin Selective Antibiotic (50 mg/ml) and 2 mM HEPES (1 M). Cells were seeded in Opti-MEM (Life Technologies-11058-021), 1.7×10^5 cells/mL, 40 μl per well into the assay plate, centrifuged at 500 rpm for 30 seconds and incubated for 2 hours. Max Signal control wells consisted of DMSO only treated wells. Minimum Signal control wells contained of 10 uM parental unlabeled VHL antagonist (control compound—see structure below). 3× Complete Substrate plus Inhibitor Solution was prepared in Opti-MEM (consists of a 1:166 dilution of NanoBRET™ Nano-Glo® Substrate plus a 1:500 dilution of Extracellular NanoLuc® Inhibitor in Opti-MEM), and 20 ul was dispensed into each well of the 384-well plate and centrifuged at 1000 rpm for 1 minute, then incubated for 2 minutes at room temperature. Background Signal control wells were prepared without tracer for background correction steps.
Plates were read using a PerkinElmer Envision Reader (model 2104-0020) equipped with Luminescence option (Mirror: BRET2 Enh (PE Barcode 659), Emission Filter: Omega 610LP (Barcode 504), 2nd Emission Filter: Umbelliferone 460 (Barcode 207), Measurement height: 6.5 mm, Measurement time: 1 s). The raw BRET ratio values were calculated by dividing the acceptor emission value (610 nm) by the donor emission value (460 nm) for each sample. To correct for background, the BRET ratio in the absence of tracer (average of no-tracer control samples) was subtracted from the BRET ratio of each sample. Raw BRET units were converted to milliBRET units (mBU) by multiplying each raw BRET value by 1,000. The normalized NanoBRET™ signal was calculated relative to the Max Signal control wells (DMSO treated control wells) and the Minimum Signal control wells. Percentage inhibition was calculated relative to the Minimum Signal control and Maximum Signal control wells. IC50 values were derived by four parameter curve fitting using the Robust method.

T1 sequence (P40337 whole entry): as the sequence (P40337 whole entry, the tested form may be a part) above
T1 sequence (Q15370 whole entry partner): as the sequence (Q15370 whole entry partner, the tested form may be a part) above
T1 sequence (Q15369 whole entry partner): as the sequence (Q15369 whole entry partner, the tested form may be a part) above

| SMILES | EC50 (VHL) [nM] | IC50 (VHL Elongin B/C complex) [nM] | IC50 [1] [nM] | Ratio cell permeability shift [1] |
| --- | --- | --- | --- | --- |
| CC(C)(C)[C@@H](C(=O)N1C[C@H](O)C[C@H]1C(N)=O)n1cc(C2CC2)nn1 [Final product from Example S1, (2S,4R)-1-((S)-2-(4-cyclopropyl-1H-1,2,3-triazol-1-yl)-3,3-dimethylbutanoyl)-4-hydroxypyrrolidine-2-carboxamide] | 2140 | 1170 | 2000 | 1.71 |
| CNC(=O)[C@@H]1C[C@@H](O)CN1C(=O)[C@@H](n1cc(C2CC2)nn1)C(C)(C)C [Final product from Example S2, (2S,4R)-1-((S)-2-(4-cyclopropyl-1H-1,2,3-triazol-1-yl)-3,3-dimethylbutanoyl)-4-hydroxy-N-methylpyrrolidine-2-carboxamide] | 2550 |  | 2990 | 1.17 |
